Source: patent publication US10301664B2, “Repurposing non-antimicrobial drugs and clinical molecules to treat bacterial infections” (Purdue Research Foundation, priority 2015, dated 2019)
≈ marks a conversion by molar mass, not a printed value.

Columns and labels:
[1] = test system: MRSA USA300 persister cells tolerant to ciprofloxacin; assay: Killing of S. aureus persister cells; format: cell-based; settings: added after ciprofloxacin treatment; 48 h
intracellular MRSA = assay: Synergy with conventional antimicrobials in infected cell cultures; format: cell-based; settings: compared to monotherapy
[2] = test system: MRSA (23) clinical isolates; assay: MIC against Gram +ve clinical isolates: MRSA; format: cell-based, S. aureus; settings: for MIC50: MRSA (23)
[3] = test system: VISA and VRSA (14) clinical isolates; assay: MIC against Gram +ve clinical isolates: VISA and VRSA; format: cell-based, S. aureus
[4] = test system: VRE (14) clinical isolates; assay: MIC against Gram +ve clinical isolates: VRE; format: cell-based, enterococcus
A. baumannii = assay: MIC against G-ve with and without colistin: A. baumannii; format: cell-based
E.. coli O157:H7 = assay: MIC against G-ve with and without colistin: E. coli O157:H7; format: cell-based
S. Typhimurium = assay: MIC against G-ve with and without colistin: S. Typhimurium; format: cell-based
K. pneumonia = assay: MIC against G-ve with and without colistin: K. pneumonia; format: cell-based
P. aeruginosa = assay: MIC against G-ve with and without colistin: P. aeruginosa; format: cell-based
[5] = test system: Colistin resistant clinical isolates of P. aeruginosa; assay: MIC against G-ve with and without colistin: colistin resistant P. aeruginosa; format: cell-based; settings: without colistin
S. aureus biofilm = assay: Reduction of adherent S. aureus biofilm; format: cell-based; settings: compared to linezolid, mupirocin, vancomycin, rifampicin
From the text: (§1) Biofilms are a major contributing factor to lack of healing of chronic wounds, as the matrix-embedded bacteria are recalcitrant to antibiotics and host immune response, rendering them extremely challenging and costly to treat.

S. epidermidis biofilm = assay: Reduction of adherent S. epidermidis biofilm; format: cell-based; settings: compared to linezolid, mupirocin, vancomycin, rifampicin
From the text: as §1

MRSA USA300 [6] = assay: Mouse-model of staphylococcal skin infection: bacterial load; format: in vivo, BALB/c mice; settings: topical 20 mg of 2% in petroleum jelly, twice a day for 5 days
Experimental: Auranofin and ebselen were evaluated in a mouse-model of staphylococcal skin infection. Seven groups of BALB/c mice (n=5) were inoculated with MRSA USA300 (4.3×10^9 CFU/ml) intradermally. 48 hours after infection and formation of open wound, four groups were treated topically with 20 mg of 2% Ebselen, 2% Auranofin, 2% mupirocin or 2% […] in petroleum jelly (ointment—skin protectant). Two groups were treated orally with either linezolid or clindamycin (25 mg/kg). The last group received the vehicles alone (petroleum jelly). All groups were treated twice a day for 5 days.
Since the clinical severity of bacterial skin infections is driven by the excess host pro-inflammatory cytokines rather than by bacterial burden, the recognized anti-inflammatory response of Auranofin and Ebselen combined with the potent antimicrobial, killing intracellular MRSA, and antibiofilm activities, should provide great advantage in the treatment of bacterial skin infection and wound healing. In this Example, we evaluated Auranofin and Ebselen in a mouse-model of staphylococcal skin infection. Seven groups of BALB/c mice (n=5) were inoculated with MRSA USA300 (4.3×10^9 CFU/ml) intradermally. 48 hours after infection and formation of open wound, four groups were treated topically with 20 mg of 2% ebselen, 2% auranofin, 2% mupirocin or 2% […] in petroleum jelly (ointment—skin protectant). […]

[7] = test system: pro-inflammatory cytokines (TNF-α, IL-6, IL-1β, MCP-1); assay: Cytokines production in MRSA skin infection in mice; format: in vivo; settings: topical application
From the text: Each points represents single mice and each group has 5 mice. P values of (*P≤0.05) (**P≤0.01) are considered as significant. We investigated the immunomodulatory activity of Auranofin and ebselen in a topical application against MRSA skin infection in mice.
In this Example, we investigated the immunomodulatory activity of Auranofin and Ebselen in a topical application against MRSA skin infection in mice. […] These cytokines are thought to play a greater role in the severity of S. aureus skin infections more than the size of the bacterial burden and can lead to an infection persisting for a longer time period. Therefore, the ability of Auranofin and Ebselen reduces the production of these cytokines in the infected mice, indicating the clinical relevance of these drugs if used for antimicrobial treatment.

[8] = test system: intracellular MRSA USA300 in J774A.1 cells; assay: Activity against intracellular MRSA in J774A.1 cells; format: cell-based; settings: compared to vancomycin and linezolid
[9] = test system: MRSA USA300-0114 toxins hla and PVL; assay: MRSA toxin production by ELISA; format: cell-based, S. aureus; settings: 1 hour incubation
[10] = test system: multiple MRSA and VRSA strains; assay: Synergy with conventional antimicrobials in vitro; format: cell-based, S. aureus; settings: most tested conventional antimicrobials, all tested strains (few exceptions such as VRSA5)
MRSA USA300 [11] = assay: Mouse model of MRSA systemic infection (lethal); format: in vivo, BALB/c mice; settings: three doses
From the text: (§2) For MRSA systemic infection, neutropenic Female BALB/c mice were inoculated IP with 1×10^9 MRSA USA300.

MRSA USA300 [12] = assay: Non-lethal MRSA infection mice model; format: in vivo; settings: two doses oral 0.25 mg/kg
From the text: as §2

S. aureus = assay: Macromolecular synthesis (MMS): incorporation of radioactive precursors; format: cell-based
From the text: In this Example we examined the effect of Auranofin and Ebselen on incorporation of radioactive precursors into macromolecules in S. aureus.

[13] = test system: E. coli cellular extracts (bacterial translation process); assay: Bacterial transcription and translation assay, luciferase readout; format: biochemical
From the text: For bacterial protein-synthesis inhibition, E. coli cellular extracts in a transcription and translation assay were used to monitor protein production via luciferase readout.
(§3) In this Example, we tested the effects of the two drugs on bacterial, mammalian and mitochondrial protein-synthesis. For bacterial protein-synthesis inhibition, we used E. coli cellular extracts in a transcription and translation assay that monitors protein production via luciferase readout.

[14] = test system: rabbit reticulocyte lysate system (mammalian protein synthesis); assay: Mammalian protein synthesis in rabbit reticulocyte lysate system; format: biochemical
From the text: (IC50) of Auranofin in rabbit reticulocyte extract. […] The results are given as means±SD (data without error bars indicate that the SD is too small to be seen).
as §3

[15] = in vivo; cited from earlier work
MRSA USA300 [16] = assay: Library hits: MIC/MBC against MRSA; format: cell-based, Staphylococcus aureus; settings: Staphylococcus aureus
[17] = test system: vancomycin resistant E. faecium ATCC 700221 (VRE); assay: Library hits: MIC/MBC against VRE; format: cell-based
[18] = test system: K. pneumoniae ATCC BAA-1705; assay: Library hits: MIC against K. pneumoniae; format: cell-based
[19] = test system: A. baumannii ATCC BAA-1605; assay: Library hits: MIC against A. baumannii; format: cell-based
E. cloacae ATCC BAA-1143 = assay: Library hits: MIC against E. cloacae; format: cell-based
P. aeruginosa ATCC 15442 = assay: Library hits: MIC against P. aeruginosa; format: cell-based
[20] = concentrations significantly below the MIC

For `C=C[C@]1(C)C[C@@H](OC(=O)CS[C@@H]2C[C@H]3CC[C@@H](C2)N3C)[C@]2(C)[C@H](C)CC[C@]3(CCC(=O)[C@H]32)[C@@H](C)[C@@H]1O` [retapamulin], which “effect on number of planktonic persister cells” value (from here on “effect on number”) [1] is on record?
The value was “minimal impact”.

With `CC[C@H]1OC(=O)[C@H](C)[C@@H](O[C@H]2C[C@@](C)(OC)[C@@H](O)[C@H](C)O2)[C@H](C)[C@@H](O[C@@H]2O[C@H](C)C[C@H](N(C)C)[C@H]2O)[C@](C)(O)C[C@@H](C)C(=O)[C@H](C)[C@@H](O)[C@]1(C)O` [erythromycin] as the compound, how does the “activity when combined with Auranofin and Ebselen in infected cell cultures” value (intracellular MRSA) read?
The value was “synergistic activity”.

Which MIC50 ([2]; first column per drug) does the source give for `CC(=O)OC[C@H]1O[C@@H]([S-])[C@H](OC(C)=O)[C@@H](OC(C)=O)[C@@H]1OC(C)=O.CCP(CC)CC.[Au+]` [Auranofin] here?
Its MIC50 is 0.062 µg/mL.

What about the MIC50 ([2]; second column per drug) of the same compound?
The MIC50 was 0.125 µg/mL.

And the “MIC90 (MICs at which 90% of MRSA isolates were inhibited)” value ([2]; MRSA isolates)?
Its value is 0.125 µg/mL.

What about the MIC50 ([3]; first column per drug) of the same compound?
The MIC50 was 0.062 µg/mL.

What about the MIC50 ([3]; second column per drug) of the same compound?
Its MIC50 is 0.062 µg/mL.

And the MIC50 ([4]; first column per drug)?
The MIC50 was 0.125 µg/mL.

What about the MIC50 ([4]; second column per drug) of the same compound?
The MIC50 was 0.125 µg/mL.

And the “MIC, colistin (+)” value (A. baumannii; with sub-inhibitory colistin 0.0625 μg/ml)?
The value was 0.25 µg/mL.

What about the “MIC, colistin (−)” value (A. baumannii; without colistin) of the same compound?
Its value is 16 µg/mL.

What about the “MIC, colistin (+)” value (E.. coli O157:H7; E. coli O157:H7, with sub-inhibitory colistin 0.0625 μg/ml) of the same compound?
Its value is 0.0625 µg/mL.

And the “MIC, colistin (−)” value (E.. coli O157:H7; E. coli O157:H7, without colistin)?
The value was 64 µg/mL.

What about the “MIC, colistin (−)” value (S. Typhimurium; without colistin) of the same compound?
Its value is 128 µg/mL.

What about the “MIC, colistin (+)” value (K. pneumonia; with sub-inhibitory colistin 0.125 μg/ml) of the same compound?
The value was 0.125 µg/mL.

What about the “MIC, colistin (−)” value (K. pneumonia; without colistin) of the same compound?
The value was 256 µg/mL.

And the “MIC, colistin (+)” value (P. aeruginosa; with sub-inhibitory colistin 0.25 μg/ml)?
The value was 0.0312 µg/mL.

What about the “MIC, colistin (−)” value (P. aeruginosa; without colistin) of the same compound?
Its value is 256 µg/mL.

And the “MIC, colistin (−)” value [5]?
Its value is over 256 µg/mL.

And the “reduction of adherent biofilm” value (S. aureus biofilm)?
Its value is “superior in reducing adherent biofilms”.

And the “reduction of adherent biofilm” value (S. epidermidis biofilm)?
Its value is “superior in reducing adherent biofilms”.

What about the “bacterial load in MRSA skin lesions” value (MRSA USA300 [6]) of the same compound?
The value was “significantly reduced the bacterial load”.

And the “level of IL-6” value [7]?
Its value is “significantly reduced”.

What about the “level of TNF-α” value [7] of the same compound?
Its value is “significantly reduced”.

What about the “level of IL-1β” value ([7]; data not shown) of the same compound?
Its value is “significantly reduced”.

And the “level of MCP-1” value ([7]; data not shown)?
The value was “significantly reduced”.

And the “reduction of intracellular MRSA” value [8]?
Its value is “superior in reducing intracellular MRSA”.

What about the “production of toxin PVL” value [9] of the same compound?
Its value is “significantly suppressed toxin production”.

And the “production of toxin hla” value [9]?
Its value is “significantly suppressed toxin production”.

And the “relationship with conventional antimicrobials in vitro” value [10]?
The value was “synergistic relationship”.

What about the “effect on number” value [1] of the same compound?
The value was “complete eradication of planktonic persister cells”.

What about the mice survival (MRSA USA300 [11]; oral 0.125 mg/kg once daily) of the same compound?
Its mice survival is 40%.

What about the mice survival (MRSA USA300 [11]; oral 0.25 mg/kg once daily) of the same compound?
Its mice survival is 80%.

What about the “bacterial load in the liver and spleen” value (MRSA USA300 [12]) of the same compound?
Its value is “significantly reduced the bacterial load”.

What about the DNA synthesis inhibition (S. aureus; [20]) of the same compound?
The DNA synthesis inhibition was “clear dose-dependent disruption”.

And the “cell wall synthesis inhibition” value (S. aureus; [20])?
Its value is “clear dose-dependent disruption”.

And the protein synthesis inhibition (S. aureus; [20])?
The protein synthesis inhibition was “clear dose-dependent disruption”.

What about the “effect on RNA synthesis” value (S. aureus; up to 4×MIC) of the same compound?
The value was “no significant effect”.

What about the “effect on lipid synthesis” value (S. aureus; up to 4×MIC) of the same compound?
The value was “no significant effect”.

What about the “IC50 of bacterial translation” value [13] of the same compound?
Its value is 0.038 µg/mL.

What about the “inhibition of translation in mammalian protein synthesis” value [14] of the same compound?
Its value is “did not inhibit translation”.

What about the “clinically achievable blood concentration” value [15] of the same compound?
The value was 2.37 µg/mL.

With `CCCCCCCCCOc1ccc2[nH]cc(CCN)c2c1` [5-Nonyloxytryptamine] as the compound, how does the MBC (MRSA USA300 [16]) read?
Its MBC is 8 µM (≈ 2.42 µg/mL).

What about the MIC (MRSA USA300 [16]) of the same compound?
Its MIC is 4 µM (≈ 1.21 µg/mL).

And the MIC [17]?
The MIC was 8 µM (≈ 2.42 µg/mL).

And the MIC/MBC [18]?
Its MIC/MBC is over 16 µM.

What about the MIC/MBC [19] of the same compound?
The MIC/MBC was 16 µM (≈ 4.84 µg/mL).

What about the MIC/MBC (E. cloacae ATCC BAA-1143) of the same compound?
Its MIC/MBC is 16 µM (≈ 4.84 µg/mL).

What about the MIC/MBC (P. aeruginosa ATCC 15442) of the same compound?
Its MIC/MBC is over 16 µM.

Which “effect on number” value [1] does the source give for `CC(=O)NC[C@H]1CN(c2ccc(N3CCOCC3)c(F)c2)C(=O)O1` [linezolid] here?
Its value is “minimal impact”.

And the mice survival (MRSA USA300 [11]; oral 25 mg/kg once daily)?
The mice survival was “significantly increased mice survival”.

With colistin as the compound, how does the MICs of colistin (A. baumannii) read?
Its MICs of colistin is 0.25 µg/mL.

What about the MICs of colistin (E.. coli O157:H7; E. coli O157:H7) of the same compound?
The MICs of colistin was 0.25 µg/mL.

And the MICs of colistin (S. Typhimurium)?
The MICs of colistin was 1 µg/mL.

And the MICs of colistin (K. pneumonia)?
The MICs of colistin was 0.25 µg/mL.

And the MICs of colistin (P. aeruginosa)?
Its MICs of colistin is 0.5 µg/mL.
